Measurements: patent US12635691B2, “Fipronil containing insecticide gels” (Henkel AG & Co. KGaA, priority 2022, dated 2026)
Entries after “also recorded” stand apart in the source; their conditions may differ.

Test: Migration of fipronil from the gel formula into the container, by container material
Assay type: physicochemical
Method: When the products are formulated in a gel medium, they are often packaged in the forms of capsules, syringes, or adhesive strips. The packaging materials frequently contain plastics. […] Such plastics may include, but are not limited to, polystyrene/butadiene blend, polyethylene (PE) thermoformed, or PET/PE copolymer […].
Fipronil has a solubility in water around 0.002 g/l (20° C.). At a level of […], fipronil is soluble in the water-based matrix because its solubility in water is 0.002 g/l (20° C., BASF SDS). However, although being soluble in the formula, fipronil tends to migrate, under room temperature conditions and in high temperatures (tested up to 54° C.), into the container (i.e., plastic packaging) depending on the material that the container is made of: • a. […] PET/PE thermoformed→Migration • c. Polyethylene thermoform→Migration • d. Polyethylene injected→No migration • e. Polystyrene→No migration • f. Polystyrene/Butadiene (4%)→migration

N#Cc1nn(-c2c(Cl)cc(C(F)(F)F)cc2Cl)c(N)c1[S+]([O-])C(F)(F)F (stereo not drawn) [Fipronil, 1-[2,6-Cl2 4-CF3 phenyl] 3-CN 4-[SO—CF3] 5-NH2 pyrazole]
Migration of fipronil into the container (container: Glass (used as reference), room temperature and high temperatures (tested up to 54° C.)): No migration, formula stable; also recorded: no fipronil migration | Migration of fipronil into the container (container: PET/PE thermoformed, room temperature and up to 54° C.): Migration | Migration of fipronil into the container (container: Polyethylene injected, room temperature and up to 54° C.): No migration | Migration of fipronil into the container (container: Polyethylene thermoform, room temperature and up to 54° C.): Migration | Migration of fipronil into the container (container: Polystyrene/Butadiene (4%), room temperature and up to 54° C.): migration | Migration of fipronil into the container (container: Polystyrene, room temperature and up to 54° C.): No migration
